Read-outs that look alike come from different tables or passages of the source.
Columns and labels:
[1] = format: in vivo, human; conditions: for AUC / Cmax: geometric mean (CV%); for Tmax: median (min‐max); for half-life: arithmetic mean (SD)
[2] = system: CYP3A; assay: Cocktail DDI study: effect of zanubrutinib on CYP3A probe midazolam; format: in vivo, human
[3] = system: CYP3A4; conditions: cited from earlier work
[4] = system: CYP2C19; assay: Cocktail DDI study: effect of zanubrutinib on CYP2C19 probe omeprazole; format: in vivo, human
[5] = system: BCRP; assay: Cocktail DDI study: effect of zanubrutinib on BCRP probe rosuvastatin; format: in vivo, human; conditions: rosuvastatin with/without zanubrutinib 160 mg b.i.d.
[6] = Plasma PK of zanubrutinib alone and with omeprazole 20 mg; format: in vivo; conditions: male, human, oral
[7] = Safety analyses; format: in vivo, human; conditions: for incidence of TEAEs: 17 subjects
[8] = system: CYP2B6; assay: CYP mRNA induction in human hepatocytes; format: in vitro ADME; conditions: according to FDA guidance, in vitro
[9] = system: P‐glycoprotein (P‐gp); assay: In vitro transporter inhibition; format: in vitro ADME; conditions: 160 mg zanubrutinib b.i.d.; FDA cutoff 10
[10] = system: breast cancer resistance protein (BCRP); assay: In vitro transporter inhibition; format: in vitro ADME; conditions: 160 mg zanubrutinib b.i.d.; FDA cutoff 10
[11] = system: CYP2C8; conditions: human liver microsomes, reversible inhibition; cited from earlier work
[12] = system: CYP2C9; conditions: human liver microsomes, reversible inhibition; cited from earlier work
[13] = system: CYP2C19; conditions: human liver microsomes, reversible inhibition; cited from earlier work
[14] = system: CYP2B6; conditions: at 3 and 30 μM, human hepatocytes; cited from earlier work
[15] = system: CYP2C8; conditions: at 3 and 30 μM, human hepatocytes; cited from earlier work
[16] = system: CYP2C9; conditions: at 3 and 30 μM, human hepatocytes; cited from earlier work
[17] = system: CYP3A; conditions: at 3 and 30 μM, human hepatocytes; cited from earlier work
[18] = system: P‐glycoprotein (P‐gp); conditions: concentrations up to 10.0 μM; cited from earlier work
[19] = system: breast cancer resistance protein (BCRP); conditions: concentrations up to 5.0 μM; cited from earlier work
[20] = system: OATP1B1; conditions: concentrations up to 5.0 μM; cited from earlier work
[21] = system: OATP1B3; conditions: concentrations up to 5.0 μM; cited from earlier work
[22] = system: organic anion transporter (OAT) 1; conditions: concentrations up to 5.0 μM; cited from earlier work
[23] = system: OAT3; conditions: concentrations up to 5.0 μM; cited from earlier work
[24] = system: organic cation transporter (OCT) 2; conditions: concentrations up to 5.0 μM; cited from earlier work
[25] = oral, patients with B‐cell malignancies; cited from earlier work
[26] = cited from earlier work
[27] = system: CYP3A4/5; conditions: cited from earlier work
[28] = system: CYP3A4; conditions: co‐administration with rifampicin; cited from earlier work
[29] = male, human, plasma, oral, AUC0‐t, probe drugs + zanubrutinib 160 mg b.i.d.
[30] = male, human, plasma, oral, Cmax, probe drugs + zanubrutinib 160 mg b.i.d.
[31] = male, human, plasma, oral, AUC0‐∞, probe drugs + zanubrutinib 160 mg b.i.d.
[32] = male, human, plasma, oral, AUC0‐∞, probe drugs only
[33] = male, human, plasma, oral, Cmax, probe drugs only
[34] = male, human, plasma, oral, t1/2, probe drugs only
[35] = probe drugs + zanubrutinib 160 mg b.i.d.
[36] = midazolam with/without zanubrutinib 160 mg b.i.d.
[37] = omeprazole with/without zanubrutinib 160 mg b.i.d.

## C[C@H]1O[C@@H](O[C@H]2[C@@H](O)C[C@H](O[C@H]3[C@@H](O)C[C@H](O[C@H]4CC[C@@]5(C)[C@H](CC[C@@H]6[C@@H]5C[C@@H](O)[C@]5(C)[C@@H](C7=CC(=O)OC7)CC[C@]65O)C4)O[C@@H]3C)O[C@@H]2C)C[C@H](O)[C@@H]1O [Digoxin, digoxin]
[1]; male, human, plasma, oral, 0.25 mg, AUC0‐t, probe drugs only
  AUC: 6.54 ng·h/mL
[1]; [29]
  AUC: 7.28 ng·h/mL
[1]; [30]
  Cmax: 1.56 ng/mL
[1]; probe drugs only
  Tmax: 1.00 (0.500–2.00) h

## Cc1ncc2n1-c1ccc(Cl)cc1C(c1ccccc1F)=NC2 [Midazolam, midazolam]
[1]; in vivo
  within‐subject variation in Cmax and AUC: ≤ 17.6%
[1]; [29]
  AUC: 14.3 ng·h/mL
[1]; [31]
  AUC: 15 ng·h/mL
[1]; [32]
  AUC: 28.2 ng·h/mL
[1]; [30]
  Cmax: 7.12 ng/mL
[1]; [33]
  Cmax: 10.2 ng/mL
[1]; [34]
  half-life: 292 min
[1]; [35]
  Tmax: 0.500 (0.500–1.00) h
[2]; co‐administration of zanubrutinib
  mean changes (decrease) to AUC0‐t, AUC0‐∞ and Cmax: less than 50%
[2]; [36]
  Ratio of GLSM, AUC0‐t: 52.52%
  Ratio of GLSM, AUC0‐∞: 52.58%
  Ratio of GLSM, Cmax: 70.17%
[3]; 7 days of rifampin dosing
  mean AUC ratio of midazolam with and without rifampin: 0.12
[3]; 14 days of rifampin dosing
  mean AUC ratio of midazolam with and without rifampin: 0.11

## COc1ccc2[nH]c([S+]([O-])Cc3ncc(C)c(OC)c3C)nc2c1 (stereo not drawn) [Omeprazole, omeprazole]
[1]; in vivo
  within‐subject variation in AUC: 15%
  within‐subject variation in Cmax: 35%
[1]; [29]
  AUC: 282 ng·h/mL
[1]; [30]
  Cmax: 182 ng/mL
[1]; [33]
  Cmax: 229 ng/mL
[1]; probe drugs only
  Tmax: 2.00 (1.00–8.00) h
[4]; in vivo
  mean AUC0‐t lower with zanubrutinib co‐administration: approximately 36%
  mean Cmax lower with zanubrutinib co‐administration: ~21%
[4]; [37]
  Ratio of GLSM, AUC0‐t: 63.52%
  Ratio of GLSM, Cmax: 79.5%

## CC(C)c1nc(N(C)S(C)(=O)=O)nc(-c2ccc(F)cc2)c1/C=C/[C@@H](O)C[C@@H](O)CC(=O)O [Rosuvastatin, rosuvastatin]
[1]; in vivo
  within‐subject variation in Cmax and AUC: ≤ 27.5%
[1]; [29]
  AUC: 32.9 ng·h/mL
[1]; [31]
  AUC: 34.4 ng·h/mL
[1]; [32]
  AUC: 41 ng·h/mL
[1]; [30]
  Cmax: 3.75 ng/mL
[1]; [33]
  Cmax: 3.47 ng/mL
[1]; male, human, plasma, oral, t1/2, probe drugs + zanubrutinib 160 mg b.i.d.
  half-life: 672 min
[1]; [34]
  half-life: 774 min
[1]; [35]
  Tmax: 3.00 (1.50–4.05) h
[5]
  Ratio of GLSM, AUC0‐t: 89.45%
  Ratio of GLSM, AUC0‐∞: 89.29%
  Ratio of GLSM, Cmax: 108%

## CC(=O)C[C@@H](c1ccccc1)c1c(O)c2ccccc2oc1=O [S‐warfarin]
[1]; [35]
  Cmax: 666 (22.2) ng/mL
  Tmax: 1.00 (0.500–2.00) h
[1]; probe drugs only
  Cmax: 698 (14.9) ng/mL
  Tmax: 1.00 (0.500–4.00) h

## C=CC(=O)N1CCC([C@@H]2CCNc3c(C(N)=O)c(-c4ccc(Oc5ccccc5)cc4)nn32)CC1 [Zanubrutinib, zanubrutinib]
[6]; 20 mg
  Cmax: 233 ng/mL
  Tmax: 2 h
  half-life: 176 min
[6]; 20 mg, AUC0‐t, with omeprazole 20 mg (Day 18), n = 17, geometric mean (CV%)
  AUC: 1070 ng·h/mL
[6]; 20 mg, AUC0‐τ, with omeprazole 20 mg (Day 18), τ = 12 h, n = 16, geometric mean (CV%)
  AUC: 1080 ng·h/mL
[6]; 160 mg twice daily
  Cmax: 231 ng/mL
  half-life: 162 min
[6]; 160 mg twice daily, AUC0‐τ, zanubrutinib only (Day 13), τ = 12 h, n = 16, geometric mean (CV%)
  AUC: 1050 ng·h/mL
[6]; 160 mg, AUC0‐t, zanubrutinib 160 mg b.i.d. only (Day 13), n = 17, geometric mean (CV%)
  AUC: 1030 ng·h/mL
[7]; 160 mg b.i.d. alone or co‐administered with probe drugs
  tolerability: generally well tolerated
[7]; probe drugs plus zanubrutinib
  incidence of TEAEs: 11.8%
[7]; zanubrutinib only
  incidence of TEAEs: 11.8%
[8]
  R3 value for induction: 0.55
[9]
  ratio of intestinal concentration and in vitro IC50 ([I]2/IC50): […]
[10]
  ratio of intestinal concentration and in vitro IC50 ([I]2/IC50): […]
[11]
  IC50: […]
[12]
  IC50: […]
[13]
  IC50: […]
[14]
  increase in mRNA: ≥ 2 fold
[15]
  increase in mRNA: ≥ 2 fold
[16]
  increase in mRNA: ≥ 2 fold
[17]
  increase in mRNA: ≥ 2 fold
[18]
  inhibition of transporter: neither a significant inhibitor
[19]
  inhibition of transporter: nor a significant inhibitor
[20]
  inhibition of transporter: nor a significant inhibitor
[21]
  inhibition of transporter: nor a significant inhibitor
[22]
  inhibition of transporter: nor a significant inhibitor
[23]
  inhibition of transporter: nor a significant inhibitor
[24]
  inhibition of transporter: nor a significant inhibitor
[25]
  mean apparent terminal elimination half‐life (t1/2): 2 to 4 h
[26]
  solubility: pH‐dependent solubility

## COc1ccc(-n2nc(C(N)=O)c3c2C(=O)N(c2ccc(N4CCCCC4=O)cc2)CC3)cc1 [apixaban]
[27]
  fraction metabolized by CYP3A4/5: 15%

## O=C(NC[C@H]1CN(c2ccc(N3CCOCC3=O)cc2)C(=O)O1)c1ccc(Cl)s1 [rivaroxaban]
[27]
  fraction metabolized by CYP3A4/5: ~ 18%
[28]
  decrease in mean AUC: ~50%

Source: publication PMC8359458 (British Journal of Clinical Pharmacology, 2021)
